Patent US9776963B2, “Small molecule CD4 mimetics and uses thereof” (priority 2008, dated 2017)
Where “and” joins values, the source holds several entries; their conditions need not be identical. Equal values may be shown once. Read-outs that look alike come from different tables or passages of the source.

Tests used:
[1] = tested on: recombinant HIV with the w.t. HIVYU2 envelope glycoproteins; test: microbe, parasite or virus in culture; format: cell-based; conditions: for inhibition of HIV infection of cells expressing CD4 and CCR5 (in words): specificity versus A-MLV control; for IC50: w.t. YU2 envelope glycoproteins
[2] = tested on: viruses with the S375W envelope glycoproteins; format: cell-based; conditions: Cf2Th-CCR5 cells
D368A mutant viruses = format: cell-based; conditions: D368A envelope, CD4-CCR5+ target cells
[3] = tested on: viruses with gp120 Glu 429 replaced with alanine; format: cell-based
[4] = tested on: recombinant HIV with the wild-type HIVYU2 envelope glycoproteins; format: cell-based; conditions: w.t. YU2 envelope
[5] = tested on: viruses with gp120 Glu 429 replaced with lysine; format: cell-based
[6] = molecular target: T1, w.t. HIV-1 YU2 gp120 glycoprotein (Human immunodeficiency virus type 1 group M subtype B, UniProt P35961); test: biochemical; format: binding; conditions: for Kd: w.t. gp120, ITC, 25° C.
T1 construct: (His)6 (C); made in house; host or cells: 293F cells

[7] = tested on: viruses with HXBc2 or KB9 Env gps
Text: The envelope glycoproteins were derived from CCR5-using (R5) primary HIV isolates (YU2 and ADA), dual-tropic (R5×4) primary isolates (89.6 and KB9) and, as a control, the amphotropic murine leukemia virus (A-MLV).

[8] = NBD-556 compared with NBD-557
[9] = tested on: viruses with the S375A change; format: cell-based; conditions: S375A envelope, compared with w.t.
HXBc2 gp120 = molecular target: T2, HXBc2 gp120 (Human immunodeficiency virus type 1 group M subtype B, UniProt P04578); test: Compound binding assay with [3H]-NBD-556, HXBc2 gp120; parameters: species or system HIV
T2 construct: (His)6 (C); made in house; host or cells: 293F cells

[10] = molecular target: T3, HIV-1 YU2 gp120 glycoprotein D368A (Human immunodeficiency virus type 1 group M subtype B, UniProt P35961, D363A); test: biochemical; format: binding
T3 construct: (His)6 (C); made in house; host or cells: 293F cells

[11] = molecular target: T4, HIV-1 YU2 gp120 glycoprotein D368A/S375A (Human immunodeficiency virus type 1 group M subtype B, UniProt P35961, D363A/S370A); test: biochemical; format: binding
T4 construct: (His)6 (C); made in house; host or cells: 293F cells

[12] = molecular target: T5, HIV-1 YU2 gp120 glycoprotein V430A (Human immunodeficiency virus type 1 group M subtype B, UniProt P35961, V417A); test: biochemical; format: binding
T5 construct: (His)6 (C); made in house; host or cells: 293F cells

[13] = molecular target: T6, HIV-1 YU2 gp120 glycoprotein S375A (Human immunodeficiency virus type 1 group M subtype B, UniProt P35961, S370A); test: biochemical; format: binding
T6 construct: (His)6 (C); made in house; host or cells: 293F cells

[14] = Human immunodeficiency virus 1, Cf2Th-CD4/CCR5, Cf2Th-CD4/CCR5 cells

Molecule	inhibition of HIV infection of cells expressing CD4 and CCR5 (in words) [1]	enhancement of infection (in words) [2]	enhancement of infectivity (in words) (D368A mutant viruses)	virus activation (in words) [3]	activation of infection (in words) [5]	gp120 binding / affinity (in words) [6]	other results
COC(=O)CCCn1cc(CN2C(C)(C)CC(NC(=O)C(=O)Nc3ccc(Cl)c(F)c3)CC2(C)C)nn1 [XVIII]	efficient and specific inhibition of HIV-1	–	–	–	–	–	–
CC1(C)CC(NC(=O)C(=O)Nc2ccc(Br)cc2)CC(C)(C)N1 [NBD-557]	–	did not activate the entry	not enhanced	significantly diminished	eliminated the activation of infection	comparably to NBD-556	enhancement of HIV infection of CD4-CCR5+ cells (in words) [4]: comparably to NBD-556
CC1(C)CC(NC(=O)C(=O)Nc2ccc(Cl)c(Cl)c2)CC(C)(C)N1 [V]	–	–	–	–	–	better gp120 binding than NBD-556 or NBD-557	–
NBD-556	–	not enhanced	enhanced	less disruptive	eliminated the activation of infection	–	infection of CD4-CXCR4+ cells (in words) [7]: did not enhance the entry; solubility (in words) [8]: better solubility; IC50 ([1]; Cf2Th-CD4/CCR5 cells): > 100 µM and 100 µM; enhancement of infection (in words) [9]: greater enhancement; direct binding of 3H-labeled compound (in words) (HXBc2 gp120): only moderately
CC1(C)CC(NC(=O)C(=O)Nc2ccc(Cl)c(F)c2)CC(C)(C)N1Cc1cn(CCCCCO)nn1 [XVI]	efficient and specific inhibition of HIV-1	–	–	–	–	–	–
CC1(C)CC(NC(=O)C(=O)Nc2ccc(Cl)c(F)c2)CC(C)(C)N1CCCO [XVII]	efficient and specific inhibition of HIV-1	–	–	–	–	–	–
CC1(C)CC(NC(=O)C(=O)Nc2ccc(Cl)c(F)c2)CC(C)(C)N1 [Compound II, N1-(4-Chloro-3-fluorophenyl)-N2-(2,2,6,6-tetramethylpiperidin-4-yl)oxalamide]	specifically inhibited HIVYU2 infection	did not activate the entry	enhanced	significantly diminished	eliminated the activation of infection	highest affinity for gp120	infection of CD4-CXCR4+ cells (in words) [7]: neither of these Env gps supported infection; IC50 ([1]; Cf2Th-CD4/CCR5 cells): 54 µM; IC50 [1, 14]: 90 µM; Kd [10]: 0.72 µM; Kd [11]: 0.083 µM; Kd [12]: 1 µM; Kd [13]: 0.14 µM; enhancement of HIV infection of CD4-CCR5+ cells (in words) [4]: most potent stimulation of HIV infection; enhancement of HIV infection of CD4-CCR5+ cells (in words) ([4]; listed as compound II): only compound II activated HIV infection; gp120 binding / affinity (in words) ([6]; listed as compound II): better gp120 binding than NBD-556 or NBD-557; Kd [6]: 0.8 µM
CN1C(C)(C)CC(NC(=O)C(=O)Nc2ccc(Cl)c(F)c2)CC1(C)C [Compound III]	lowers the IC50, while maintaining specificity for HIV-1	–	–	–	–	increases affinity for gp120	IC50 [1, 14]: 75 µM; Kd [6]: 0.33 µM
